{"source": "ChEMBL document CHEMBL1201862", "about": "“PubChem BioAssay data set” (2004)", "type_in_all_cases": "functional", "key": {"[1]": {"assay": "HepG2 cell cytotoxicity, dose response, cytotoxicity control, set 3 (AID 504853)", "conditions": "Mycobacterium tuberculosis"}, "[2]": {"assay": "Vero cell cytotoxicity, dose response, cytotoxicity control for M. tuberculosis growth inhibitor project, Vero cells, purified and synthesized compounds, set 5 (AID 504909)", "conditions": "Mycobacterium tuberculosis"}, "[3]": {"assay": "THP-1 cell cytotoxicity, cytotoxicity control, set 4 (AID 504911)", "conditions": "Mycobacterium tuberculosis"}, "[4]": {"assay": "microbe, parasite or virus in culture", "conditions": "Mycobacterium tuberculosis"}, "[5]": {"assay": "A Cell Based Secondary Assay to Explore Cytotoxicity in THP-1 Cells of Compounds that Modulate Mycobacterium tuberculosis in Media Containing Glycerol versus Media without Glycerol (2)."}, "[6]": {"assay": "Vero cell cytotoxicity, cytotoxicity control for M. tuberculosis inhibitor project, purified and synthesized samples, set 3 (AID 504684)", "conditions": "[…]"}, "[7]": {"assay": "Vero cell cytotoxicity, dose response, cytotoxicity control for M. tuberculosis growth inhibitor project, Vero cells, purified and synthesized compounds, set 4 (AID 504854)", "conditions": "Mycobacterium tuberculosis"}, "[8]": {"assay": "THP-1 cell cytotoxicity, dose response, cytotoxicity control, set 3 (AID 504852)", "conditions": "Mycobacterium tuberculosis"}, "[9]": {"assay": "A Cell Based Secondary Assay to Explore Cytotoxicity in HepG2 Cells of Compounds that Modulate Mycobacterium tuberculosis in Media Containing Glycerol versus Media without Glycerol (2)."}, "[10]": {"assay": "HepG2 cell cytotoxicity, cytotoxicity control, set 4 (AID 504910)", "conditions": "Mycobacterium tuberculosis"}, "[11]": {"target": "Casein kinase I isoform alpha (Homo sapiens, UniProt P48729)"}, "[12]": {"target": "Death-associated protein kinase 3 (Homo sapiens, UniProt O43293)"}, "Activated CDC42 kinase 1": {"target": "Activated CDC42 kinase 1 (Homo sapiens, UniProt Q07912)", "assay": "Navigating the Kinome. Panel member name: ACK1"}, "[13]": {"target": "Rho-associated protein kinase 1 (Homo sapiens, UniProt Q13464)", "sequence (Q13464 whole entry)": "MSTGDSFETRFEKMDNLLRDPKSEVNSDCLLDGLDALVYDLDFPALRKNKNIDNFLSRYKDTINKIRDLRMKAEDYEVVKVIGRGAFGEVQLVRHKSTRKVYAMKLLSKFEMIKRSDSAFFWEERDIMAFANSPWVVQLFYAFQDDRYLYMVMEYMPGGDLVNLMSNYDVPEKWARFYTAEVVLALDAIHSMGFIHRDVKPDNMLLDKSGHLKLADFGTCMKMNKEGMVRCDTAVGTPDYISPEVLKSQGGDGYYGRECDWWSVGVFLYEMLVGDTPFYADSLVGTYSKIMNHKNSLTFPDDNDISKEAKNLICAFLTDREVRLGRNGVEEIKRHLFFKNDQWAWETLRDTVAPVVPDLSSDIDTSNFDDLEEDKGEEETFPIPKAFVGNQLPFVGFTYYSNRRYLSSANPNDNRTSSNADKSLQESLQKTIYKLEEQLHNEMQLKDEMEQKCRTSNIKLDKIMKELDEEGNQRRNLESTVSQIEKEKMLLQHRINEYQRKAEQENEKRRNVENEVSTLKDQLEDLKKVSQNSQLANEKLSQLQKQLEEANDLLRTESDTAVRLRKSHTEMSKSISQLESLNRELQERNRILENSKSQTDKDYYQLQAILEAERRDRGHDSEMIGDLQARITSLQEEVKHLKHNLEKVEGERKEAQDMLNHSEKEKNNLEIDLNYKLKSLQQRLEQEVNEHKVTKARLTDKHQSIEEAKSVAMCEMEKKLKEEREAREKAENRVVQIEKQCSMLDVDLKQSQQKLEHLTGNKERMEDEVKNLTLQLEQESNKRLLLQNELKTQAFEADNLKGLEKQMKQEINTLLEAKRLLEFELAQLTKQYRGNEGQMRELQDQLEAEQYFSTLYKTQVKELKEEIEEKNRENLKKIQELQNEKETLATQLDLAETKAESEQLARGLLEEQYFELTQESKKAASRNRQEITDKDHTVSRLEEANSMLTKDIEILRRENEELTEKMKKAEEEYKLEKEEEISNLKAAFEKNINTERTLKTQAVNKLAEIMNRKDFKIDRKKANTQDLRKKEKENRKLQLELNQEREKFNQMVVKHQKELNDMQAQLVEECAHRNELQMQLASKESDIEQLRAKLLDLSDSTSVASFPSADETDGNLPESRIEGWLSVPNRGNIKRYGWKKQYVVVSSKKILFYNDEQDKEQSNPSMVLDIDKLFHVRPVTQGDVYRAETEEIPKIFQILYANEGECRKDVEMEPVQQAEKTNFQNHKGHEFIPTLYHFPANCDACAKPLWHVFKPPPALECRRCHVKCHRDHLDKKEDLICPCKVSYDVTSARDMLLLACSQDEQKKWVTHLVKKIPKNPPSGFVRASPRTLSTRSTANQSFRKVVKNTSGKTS"}, "LIM domain kinase 1": {"target": "LIM domain kinase 1 (Homo sapiens, UniProt P53667)", "assay": "Navigating the Kinome. Panel member name: LIMK1"}, "[14]": {"target": "Dual specificity protein kinase CLK4 (Homo sapiens, UniProt Q9HAZ1)"}, "[15]": {"target": "Dual specificity tyrosine-phosphorylation-regulated kinase 1B (Homo sapiens, UniProt Q9Y463)", "sequence (Q9Y463 whole entry)": "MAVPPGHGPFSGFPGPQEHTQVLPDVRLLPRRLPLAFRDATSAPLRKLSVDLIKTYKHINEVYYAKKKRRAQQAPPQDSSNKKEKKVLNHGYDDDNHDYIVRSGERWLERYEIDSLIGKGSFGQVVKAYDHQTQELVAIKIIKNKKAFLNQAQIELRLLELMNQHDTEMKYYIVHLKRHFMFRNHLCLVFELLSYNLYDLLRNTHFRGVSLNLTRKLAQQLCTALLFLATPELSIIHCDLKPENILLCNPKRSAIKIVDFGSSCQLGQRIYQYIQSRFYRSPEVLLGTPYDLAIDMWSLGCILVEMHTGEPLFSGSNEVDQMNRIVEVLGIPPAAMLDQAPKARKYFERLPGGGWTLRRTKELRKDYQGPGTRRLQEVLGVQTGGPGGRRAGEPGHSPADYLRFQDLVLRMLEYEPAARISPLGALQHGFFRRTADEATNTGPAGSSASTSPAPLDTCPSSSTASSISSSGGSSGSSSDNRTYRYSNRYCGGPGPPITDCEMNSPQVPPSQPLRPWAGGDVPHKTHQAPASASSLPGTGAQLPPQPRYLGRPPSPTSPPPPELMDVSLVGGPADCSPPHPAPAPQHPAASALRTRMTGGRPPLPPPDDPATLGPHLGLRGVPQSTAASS", "assay": "Navigating the Kinome. Panel member name: DYRK1B"}, "[16]": {"target": "Tyrosine-protein kinase Fyn (Homo sapiens, UniProt P06241)"}, "[17]": {"target": "Tyrosine-protein kinase Lck (Homo sapiens, UniProt P06239)"}, "[18]": {"target": "Receptor-type tyrosine-protein kinase FLT3 (Homo sapiens, UniProt P36888)", "sequence (P36888 whole entry)": "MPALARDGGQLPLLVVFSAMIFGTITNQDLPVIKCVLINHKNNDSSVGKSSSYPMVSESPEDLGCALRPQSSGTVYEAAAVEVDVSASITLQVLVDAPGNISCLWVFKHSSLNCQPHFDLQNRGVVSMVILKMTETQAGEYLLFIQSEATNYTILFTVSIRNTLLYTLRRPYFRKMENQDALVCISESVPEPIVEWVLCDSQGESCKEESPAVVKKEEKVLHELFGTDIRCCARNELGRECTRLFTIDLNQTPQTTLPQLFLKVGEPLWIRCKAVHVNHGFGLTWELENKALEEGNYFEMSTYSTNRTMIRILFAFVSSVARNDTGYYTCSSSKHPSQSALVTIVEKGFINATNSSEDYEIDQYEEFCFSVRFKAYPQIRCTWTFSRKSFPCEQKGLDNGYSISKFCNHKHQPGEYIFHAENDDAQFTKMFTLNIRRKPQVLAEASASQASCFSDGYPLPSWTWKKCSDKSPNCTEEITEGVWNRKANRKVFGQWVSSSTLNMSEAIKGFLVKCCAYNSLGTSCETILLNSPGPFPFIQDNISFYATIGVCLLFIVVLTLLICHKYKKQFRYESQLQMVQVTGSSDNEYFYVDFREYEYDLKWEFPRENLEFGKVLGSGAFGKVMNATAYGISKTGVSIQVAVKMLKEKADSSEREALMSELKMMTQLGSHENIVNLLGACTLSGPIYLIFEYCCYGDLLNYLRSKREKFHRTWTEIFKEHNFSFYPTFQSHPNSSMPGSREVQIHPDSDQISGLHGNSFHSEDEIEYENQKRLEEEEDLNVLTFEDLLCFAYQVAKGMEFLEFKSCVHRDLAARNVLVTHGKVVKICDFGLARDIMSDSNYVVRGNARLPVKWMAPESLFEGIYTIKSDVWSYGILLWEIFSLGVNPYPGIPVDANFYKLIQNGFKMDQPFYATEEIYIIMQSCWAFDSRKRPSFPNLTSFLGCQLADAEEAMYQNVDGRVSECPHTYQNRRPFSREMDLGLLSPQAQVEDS"}, "[19]": {"target": "Mast/stem cell growth factor receptor Kit (Homo sapiens, UniProt P10721)"}, "[20]": {"target": "Vascular endothelial growth factor receptor 3 (Homo sapiens, UniProt P35916)", "sequence (P35916 whole entry)": "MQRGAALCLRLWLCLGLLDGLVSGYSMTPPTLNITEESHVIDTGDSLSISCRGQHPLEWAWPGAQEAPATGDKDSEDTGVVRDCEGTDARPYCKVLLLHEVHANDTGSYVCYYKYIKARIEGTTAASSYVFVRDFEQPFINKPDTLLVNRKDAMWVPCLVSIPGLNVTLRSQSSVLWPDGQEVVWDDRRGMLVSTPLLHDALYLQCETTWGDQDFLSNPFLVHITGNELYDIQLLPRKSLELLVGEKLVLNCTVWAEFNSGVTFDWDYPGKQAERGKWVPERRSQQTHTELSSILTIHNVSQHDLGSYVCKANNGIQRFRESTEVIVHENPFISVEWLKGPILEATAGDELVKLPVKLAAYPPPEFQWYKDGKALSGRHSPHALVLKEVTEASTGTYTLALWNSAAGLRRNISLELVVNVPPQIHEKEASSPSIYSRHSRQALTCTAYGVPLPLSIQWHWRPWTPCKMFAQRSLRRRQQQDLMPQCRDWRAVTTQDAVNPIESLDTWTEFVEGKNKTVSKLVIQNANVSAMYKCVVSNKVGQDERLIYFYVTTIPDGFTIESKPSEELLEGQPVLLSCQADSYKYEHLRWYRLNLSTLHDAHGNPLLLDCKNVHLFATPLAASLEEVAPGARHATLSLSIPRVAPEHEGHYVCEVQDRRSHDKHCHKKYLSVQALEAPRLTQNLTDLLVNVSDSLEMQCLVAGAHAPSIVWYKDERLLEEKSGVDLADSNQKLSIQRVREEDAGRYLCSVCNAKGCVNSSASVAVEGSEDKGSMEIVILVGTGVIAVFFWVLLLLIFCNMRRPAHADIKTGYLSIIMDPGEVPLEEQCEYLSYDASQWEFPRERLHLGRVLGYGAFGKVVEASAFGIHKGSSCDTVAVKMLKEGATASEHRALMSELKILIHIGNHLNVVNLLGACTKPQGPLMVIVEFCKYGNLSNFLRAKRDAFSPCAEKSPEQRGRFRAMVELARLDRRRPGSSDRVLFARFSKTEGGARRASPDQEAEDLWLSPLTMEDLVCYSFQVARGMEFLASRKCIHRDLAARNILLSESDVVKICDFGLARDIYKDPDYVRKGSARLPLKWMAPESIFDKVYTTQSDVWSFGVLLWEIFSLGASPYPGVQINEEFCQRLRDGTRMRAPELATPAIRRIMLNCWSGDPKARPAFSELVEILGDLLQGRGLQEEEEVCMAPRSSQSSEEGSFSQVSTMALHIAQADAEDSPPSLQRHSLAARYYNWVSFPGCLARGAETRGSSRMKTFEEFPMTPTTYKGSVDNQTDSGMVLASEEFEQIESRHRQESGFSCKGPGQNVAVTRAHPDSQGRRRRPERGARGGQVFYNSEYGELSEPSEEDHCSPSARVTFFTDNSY"}, "[21]": {"target": "Vascular endothelial growth factor receptor 1 (Homo sapiens, UniProt P17948)"}, "[22]": {"target": "Vascular endothelial growth factor receptor 2 (Homo sapiens, UniProt P35968)"}, "[23]": {"target": "Tyrosine-protein kinase Blk (Homo sapiens, UniProt P51451)"}, "[24]": {"target": "Tyrosine-protein kinase ABL1 (Homo sapiens, UniProt P00519)"}, "[25]": {"target": "Macrophage colony-stimulating factor 1 receptor (Homo sapiens, UniProt P07333)"}, "[26]": {"target": "Tyrosine-protein kinase Lyn (Homo sapiens, UniProt P07948)", "sequence (P07948 whole entry)": "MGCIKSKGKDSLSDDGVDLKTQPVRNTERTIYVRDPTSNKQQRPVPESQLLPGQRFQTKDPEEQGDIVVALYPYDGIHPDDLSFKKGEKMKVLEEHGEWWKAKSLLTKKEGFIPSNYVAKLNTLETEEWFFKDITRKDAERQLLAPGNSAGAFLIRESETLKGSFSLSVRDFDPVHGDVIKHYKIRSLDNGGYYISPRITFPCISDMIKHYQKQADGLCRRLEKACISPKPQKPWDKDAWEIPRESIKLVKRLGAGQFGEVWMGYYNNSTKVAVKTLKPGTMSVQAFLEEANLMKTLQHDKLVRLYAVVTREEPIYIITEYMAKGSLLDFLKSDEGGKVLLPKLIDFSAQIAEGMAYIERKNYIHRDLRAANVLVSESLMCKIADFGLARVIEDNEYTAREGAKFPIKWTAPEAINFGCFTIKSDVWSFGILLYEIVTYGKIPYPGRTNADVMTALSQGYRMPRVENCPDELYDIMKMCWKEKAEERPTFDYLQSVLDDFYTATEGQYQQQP"}, "[27]": {"target": "Proto-oncogene tyrosine-protein kinase Src (Homo sapiens, UniProt P12931)"}, "[28]": {"target": "Melanin-concentrating hormone receptor 1 (Homo sapiens, UniProt Q99705)", "assay": "Late-stage fluorescence-based counterscreen for antagonists of the G-protein coupled receptor 7 (GPR7): cell-based dose response assay to identify antagonists of the melanin-concentrating hormone receptor 1 (MCHR1) Set 5."}, "[29]": {"target": "T1, Neuropeptides B/W receptor type 1 (Homo sapiens, UniProt P48145)", "T1 sequence (P48145 whole entry)": "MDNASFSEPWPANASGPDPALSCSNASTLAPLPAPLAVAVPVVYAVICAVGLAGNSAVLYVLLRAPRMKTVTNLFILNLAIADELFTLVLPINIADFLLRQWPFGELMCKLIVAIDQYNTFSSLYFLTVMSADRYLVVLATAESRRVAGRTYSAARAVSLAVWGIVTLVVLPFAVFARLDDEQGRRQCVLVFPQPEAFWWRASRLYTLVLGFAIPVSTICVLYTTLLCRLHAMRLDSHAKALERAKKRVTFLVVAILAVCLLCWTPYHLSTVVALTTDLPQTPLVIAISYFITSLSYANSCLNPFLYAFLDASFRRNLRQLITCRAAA", "assay": "GPR7 antagonist potency, late-stage follow-up, cell-based, fluorescence, dose response, set 5 (AID 588566)"}}, "note": "Activity calls are given as the source filed them.", "data": [{"molecule": "CCOc1ccc(-c2cc(C)[n+](CCc3ccc(OC)c(OC)c3)c(-c3ccc(OCC)cc3)c2)cc1.[O-][Cl+3]([O-])([O-])[O-]", "values": [{"measurement": "CC50", "setting": "[1]", "value": "13.1 µM (active)"}, {"measurement": "CC50", "setting": "[2]", "value": "19.7 µM (active)"}, {"measurement": "CC50", "setting": "[3]", "value": "1.3 µM (active)"}, {"measurement": "CC50", "setting": "[4]", "value": "> 40 µM (active)"}, {"measurement": "CC50", "setting": "[5]", "value": "2.28 µM (active)"}, {"measurement": "CC50", "setting": "[6]", "value": "18.2 µM (active)"}, {"measurement": "CC50", "setting": "[7]", "value": "21 µM (active)"}, {"measurement": "CC50", "setting": "[8]", "value": "1.7 µM (active)"}, {"measurement": "CC50", "setting": "[9]", "value": "9.14 µM (active)"}, {"measurement": "CC50", "setting": "[10]", "value": "11.9 µM (active)"}]}, {"molecule": "Cn1c(N)nc2sc(C(N)=O)cc21", "values": [{"measurement": "Ki", "setting": "[11]", "value": "12.6 µM (active)"}, {"measurement": "Ki", "setting": "[12]", "value": "10 µM (active)"}, {"measurement": "Ki", "setting": "Activated CDC42 kinase 1", "value": "79.4 µM (active)"}, {"measurement": "Ki", "setting": "[13]", "value": "39.8 µM (active)"}, {"measurement": "Ki", "setting": "LIM domain kinase 1", "value": "79.4 µM (active)"}, {"measurement": "Ki", "setting": "[14]", "value": "25.1 µM (active)"}, {"measurement": "Ki", "setting": "[15]", "value": "79.4 µM (active)"}]}, {"molecule": "Cc1ccc(F)c(NC(=O)Nc2ccc(-c3cccc4[nH]nc(N)c34)c(F)c2)c1", "values": [{"measurement": "Ki", "setting": "[16]", "value": "0.158 µM (active)"}, {"measurement": "Ki", "setting": "[17]", "value": "0.501 µM (active)"}, {"measurement": "Ki", "setting": "[18]", "value": "0.00316 µM (active)"}, {"measurement": "Ki", "setting": "[19]", "value": "0.002 µM (active)"}, {"measurement": "Ki", "setting": "[20]", "value": "0.00398 µM (active)"}, {"measurement": "Ki", "setting": "[21]", "value": "0.001 µM (active)"}, {"measurement": "Ki", "setting": "[22]", "value": "0.0126 µM (active)"}, {"measurement": "Ki", "setting": "[23]", "value": "0.251 µM (active)"}, {"measurement": "Ki", "setting": "[24]", "value": "> 0.631 µM (inactive)"}, {"measurement": "Ki", "setting": "[25]", "value": "0.00316 µM (active)"}, {"measurement": "Ki", "setting": "[26]", "value": "0.316 µM (active)"}, {"measurement": "Ki", "setting": "[27]", "value": "0.501 µM (active)"}]}, {"molecule": "O=c1c(Oc2ccc(Cl)c(Cl)c2)c(Cl)cnn1Cc1cccc2ccccc12", "values": [{"measurement": "IC50", "setting": "[28]", "value": "> 20 µM (inactive)"}, {"measurement": "IC50", "setting": "[29]", "value": "> 20 µM (inactive)"}]}]}
